Data from patent publication US20090074815A1, “Immunomodulator Compounds as Vaccine Enhancers” (SCICLONE PHARMACEUTICALS, INC., priority 2005, published 2009).

Test: Clinical manifestations of infectious syndrome (ARVI, ENT diseases, herpes, gastrointestinal, urogenital) after vaccination with SCV-07
Assay type: in vivo, human
Source text: The protocol of the placebo-controlled, randomized study of the efficacy of vaccination against viral hepatitis B was approved by the committee of ethics of the Chelyabinsk State Medical Academy. […] Diagnosis of the infectious syndrome was made in accordance with the standards of diagnostics and treatment of secondary immunodeficiencies recommended by the institute of Immunology of the Ministry of Public Health of the RF, Moscow. (R. M. Kahaitov, N. I. Iljina, L. V. and Luss et al., 2002) All subjects gave their personal consent to participate in the study and submitted a signed informed consent form.
Data on the incidence of episodes and relapses of chronic diseases for each immunocompromised subject were recorded during pre- and post vaccination periods and used to compare the immunological clinical parameters of each subject in the pre- and post vaccination periods. Chronic diseases that were tracked included diseases of the ears, nose and throat, urinary systems, genital systems and gastrointestinal tract, and diseases of the skin, hair and nails (the integumentary tissues).
Participants in the study had the following clinical manifestations of infectious syndrome: sixty-seven percent (67%) had acute respiratory viral infections (ARVI) more than four times a year; forty-nine percent (49%) had chronic inflammatory diseases of the ears, nose and throat; forty-five percent (45%) suffered from recurrent herpes viral infections; thirty percent (30%) had chronic inflammatory diseases of the gastrointestinal tract; thirty-three (33%) had recurrent infections of the skin and subcutaneous adipose cellular tissues. Study participants with the spontaneous form of secondary immunodeficiency typically had more than one chronic inflammatory disease. Seventy-one percent (71%) of the subjects with infectious syndrome had three or more different clinical manifestations of a chronic inflammatory disease. Subjects with a single clinical manifestation made up only three percent (3%) of Groups I and II.

N[C@H](CCC(=O)N[C@@H](Cc1c[nH]c2ccccc12)C(=O)O)C(=O)O [SCV-07, γ-D-glutamyl-L-tryptophan]
participants reporting herpes outbreaks one to two times during a year (after vaccination and SCV-07 (13% before)): 53%
participants with herpes infections five times a year or more (after vaccination and SCV-07 administration (40% before)): no participants
incidence of ARVI (subjects who previously reported ARVI between 5 and 9 times a year, vaccine + SCV-07): sharply reduced
participants without episodes or outbreaks of herpes (vaccinated and received SCV-07): Thirty-four
subjects with aggravated chronic ENT diseases three to four times a year who had no aggravated incidents during the first year after vaccination (vaccinated participants that received SCV-07): 35%
frequency of chronic diseases of the gastrointestinal tract and the urogenital system (vaccinated participants with infectious syndrome that received SCV-07): did not change
